Values quoted from earlier work, collected in US20220249506A1, “Meloxicam-Containing Granulated Product” (SSP Co., Ltd., priority 2019, published 2022).

Conditions: low pH range of pH 5.0 or less

For Cc1cnc(NC(=O)C2=C(O)c3ccccc3S(=O)(=O)N2C)s1 [meloxicam], the Solubility in water is listed as “almost insoluble in water”.
